Assay results as given in patent US20100075370A1, “METHOD FOR DETERMINATION OF CELL VIABILITY BY USING FLOW CYTOMETRY WITH FIXED VOLUME ACQUISITION” (TUMORTEC GMBH, priority 2006, published 2010).

What was measured:
[1] = system: pBMC from patients with CLL; test: Cytotoxicity of several antineoplastic agents on pBMC (LC90), fixed volume flow cytometry; format: cell-based, human; details: in µg/mL
Description: The necessary peripheral blood (PB) samples from adult patients diagnosed with chronic lymphatic leukaemia (CLL) were collected into heparin during routine diagnosis prior to administration of chemotherapy.

[2] = system: patient samples (pBMC from CLL patients); test: Cytotoxicity assay of example 1 (new method), chemosensitivity index Ci; format: cell-based, human
Protocol: (2) A more complex standardization is the calculation of an index. In case of the chemosensitivity testing it is not a single value that has to be standardized. The chemosensitivity towards a drug is tested with several concentrations of the drug in parallel in a cell culture assay. […] This method was adopted for the present invention from the analysis of DiSC assays (Staib et al., British Journal of Haematology, 2005, 128, 783-791). The Chemosensitivity Index Ci was designed as a prognostic index for ex vivo chemosensitivity assays. Assay results were expressed as percent tumor cell survival (% TCS). The dose-response curve as a function of the dose-response relationship may be mathematically described by a […] regression model (FIG. 4). The dose-response curve was defined as CS=c1*e^conc*c2 % with cell survival (CS), drug concentration (conc) and the constants c1 and c2. c1 represented the y-axis distance and c2 the slope of the curve. The area under the curve (AUC) as an exact measure for the total dose response relation was defined as AUC=−e^c1/c2, on condition that c2 is less than 0, otherwise AUC is infinite. The chemosensitivity index, Ci, was set up as Ci=e^−AUC*c with a domain between 0 and 1. The drug-specific constant c was used for adjusting the Ci-value of 0.5 as the cut-off point between resistance and sensitivity. The constant c was defined as
with AUCcut-off as the smallest AUC value among all clinical non-responding patients of the training data set. Obviously, all cytotoxic agents given for treatment were ineffective in these patients. The cut-off Ci value must be adjusted to 0.5 for prognosis of the effect of the drug on a patient in vivo when the drug is tested on said patient's cells in vitro using the method of the present invention. Ci values of 0-0.5 indicated resistance and values above 0.5 predicted sensitivity against the drug tested.
Peripheral blood mononuclear cells (pBMC) from a patient with chronic lymphatic leukaemia were isolated from the PB samples as described before (Staib, P. et al., Br. J. Haematol., 128(6):783-91 (2005)), resuspended in RPMI 1640 medium (Biochrom, Berlin, Germany) containing 20 vol. % fetal calf serum (FCS; Biochrom, Berlin, Germany) and added into the precoated 96-well plate with a final cell concentration of 10,000 cells/well and a volume of 100 μl. The plates were then agitated for 15 min in order to solubilize the dried fludarabine phosphate. Subsequently, the plates were incubated for 96 h (37° C., 5% CO2, humidified atmosphere). Thereafter, 50 μl of an 11 μM propidium iodide (PI)-solution in 0.9% aqueous NaCl solution (NaCl 0.9%) (Invitrogen, Leiden, Netherlands) were added and incubated for 15 min at room temperature. PI is a standard flow cytometric viability probe and is used to distinguish viable from nonviable cells. Viable cells with intact membranes exclude PI, whereas the membranes of dead and damaged cells are permeable to PI. PI only stains cells with compromised cell membrane, whilst live cells which have intact membranes are not stained by PI.
The chemosensitivity index Ci based on the DiSC assay as described in Staib, P. et al., Br. J. Haematol., 128(6):783-91 (2005) is known to have a very high accuracy of prediction (98%) for the clinical outcome of a particular chemotherapy (Staib, P. et al., Br. J. Haematol., 128(6):783-91 (2005)). In order to evaluate the accuracy of the cytotoxicity assay as described in example 1 (“new method”), the Ci determination was performed for assay results of patient samples analyzed with the traditional DiSC assay and—in parallel—with the new assay method described in example 1. In total, 22 patient samples were analyzed. Fludara® was used in both assays. The cytotoxicity assay of example 1 was performed as described therein, and the DiSC assay was performed as described in Staib, P. et al., Br. J. Haematol., 128(6):783-91 (2005).

`Nc1nc(F)nc2c1ncn2[C@@H]1O[C@H](COP(=O)(O)O)[C@@H](O)[C@@H]1O` [Fludarabine phosphate, 2-Fluoro-9-(5-O-phosphono-β-D-arabinofuranosyl)-9H-purin-6-amine] gave an LC90 ([1]; pBMC of CLL patient #1, ex vivo) of 69.69, an LC90 ([1]; pBMC of CLL patient #2, ex vivo) of 11.74 and an LC90 ([1]; pBMC of CLL patient #3, ex vivo) of 0.09. For the same compound, the LC90 ([1]; pBMC of CLL patient #4, ex vivo) was 26.00, the LC90 ([1]; pBMC of CLL patient #5, ex vivo) was 0.46 and the LC90 ([1]; pBMC of CLL patient #6, ex vivo) was 18.17. For the same compound, the LC90 ([1]; pBMC of CLL patient #7, ex vivo) was 13.25, the LC90 ([1]; pBMC of CLL patient #8, ex vivo) was 15.02 and the LC90 ([1]; pBMC of CLL patient #9, ex vivo) was 0.94. The LC90 ([1]; pBMC of CLL patient #10, ex vivo) was 0.01, the LC90 ([1]; pBMC of CLL patient #11, ex vivo) was 2.15 and the LC90 ([1]; pBMC of CLL patient #12, ex vivo) was 0.33. The LC90 ([1]; pBMC of CLL patient #13, ex vivo) was 0.82, the LC90 ([1]; pBMC of CLL patient #14, ex vivo) was 0.86 and the LC90 ([1]; pBMC of CLL patient #15, ex vivo) was 0.58. For the same compound, the LC90 ([1]; pBMC of CLL patient #16, ex vivo) was 0.22, the LC90 ([1]; pBMC of CLL patient #17, ex vivo) was 0.55 and the LC90 ([1]; pBMC of CLL patient #18, ex vivo) was 0.55. It also gave an LC90 ([1]; pBMC of CLL patient #19, ex vivo) of 0.50, an LC90 ([1]; pBMC of CLL patient #20, ex vivo) of 0.00 and an LC90 ([1]; pBMC of CLL patient #21, ex vivo) of 0.11. For the same compound, the LC90 ([1]; pBMC of CLL patient #22, ex vivo) was 81.92, the LC90 ([1]; pBMC of CLL patient #23, ex vivo) was 0.01 and the LC90 ([1]; pBMC of CLL patient #24, ex vivo) was 23.76. For the same compound, the LC90 ([1]; pBMC of CLL patient #25, ex vivo) was 35.21, the “patients DiSC-Assay resistant / New method sensitive” value ([2]; of 22 patients) was 0 and the “patients DiSC-Assay sensitive / New method resistant” value ([2]; of 22 patients) was 0. The “Ci (New Method)” value ([2]; patient #1) was 0.99, the “prediction (New Method)” value ([2]; patient #1) was “sensitive (values above 0.5 predicted sensitivity against the drug tested)” and the “Ci (New Method)” value ([2]; patient #2) was 0.94. For the same compound, the “prediction (New Method)” value ([2]; patient #2) was “sensitive (values above 0.5 predicted sensitivity against the drug tested)”, the “Ci (New Method)” value ([2]; patient #3) was 0.99 and the “prediction (New Method)” value ([2]; patient #3) was “sensitive (values above 0.5 predicted sensitivity against the drug tested)”. The “Ci (New Method)” value ([2]; patient #4) was 0.89, the “prediction (New Method)” value ([2]; patient #4) was “sensitive (values above 0.5 predicted sensitivity against the drug tested)” and the “Ci (New Method)” value ([2]; patient #5) was 0.93. For the same compound, the “prediction (New Method)” value ([2]; patient #5) was “sensitive (values above 0.5 predicted sensitivity against the drug tested)”, the “Ci (New Method)” value ([2]; patient #6) was 0.79 and the “prediction (New Method)” value ([2]; patient #6) was “sensitive (values above 0.5 predicted sensitivity against the drug tested)”. For the same compound, the “Ci (New Method)” value ([2]; patient #7) was 0.74, the “prediction (New Method)” value ([2]; patient #7) was “sensitive (values above 0.5 predicted sensitivity against the drug tested)” and the “Ci (New Method)” value ([2]; patient #8) was 0.83. The “prediction (New Method)” value ([2]; patient #8) was “sensitive (values above 0.5 predicted sensitivity against the drug tested)”, the “Ci (New Method)” value ([2]; patient #9) was 0.65 and the “prediction (New Method)” value ([2]; patient #9) was “sensitive (values above 0.5 predicted sensitivity against the drug tested)”. The “Ci (New Method)” value ([2]; patient #10) was 0.74, the “prediction (New Method)” value ([2]; patient #10) was “sensitive (values above 0.5 predicted sensitivity against the drug tested)” and the “Ci (New Method)” value ([2]; patient #11) was 0.60. For the same compound, the “prediction (New Method)” value ([2]; patient #11) was “sensitive (values above 0.5 predicted sensitivity against the drug tested)”, the “Ci (New Method)” value ([2]; patient #12) was 0.81 and the “prediction (New Method)” value ([2]; patient #12) was “sensitive (values above 0.5 predicted sensitivity against the drug tested)”. For the same compound, the “Ci (New Method)” value ([2]; patient #13) was 0.65, the “prediction (New Method)” value ([2]; patient #13) was “sensitive (values above 0.5 predicted sensitivity against the drug tested)” and the “Ci (New Method)” value ([2]; patient #14) was 0.63. The “prediction (New Method)” value ([2]; patient #14) was “sensitive (values above 0.5 predicted sensitivity against the drug tested)”, the “Ci (New Method)” value ([2]; patient #15) was 0.71 and the “prediction (New Method)” value ([2]; patient #15) was “sensitive (values above 0.5 predicted sensitivity against the drug tested)”. For the same compound, the “Ci (New Method)” value ([2]; patient #16) was 0.35, the “prediction (New Method)” value ([2]; patient #16) was “resistant (Ci values of 0-0.5 indicated resistance)” and the “Ci (New Method)” value ([2]; patient #17) was 0.41. For the same compound, the “prediction (New Method)” value ([2]; patient #17) was “resistant (Ci values of 0-0.5 indicated resistance)”, the “Ci (New Method)” value ([2]; patient #18) was 0.35 and the “prediction (New Method)” value ([2]; patient #18) was “resistant (Ci values of 0-0.5 indicated resistance)”. For the same compound, the “Ci (New Method)” value ([2]; patient #19) was 0.24, the “prediction (New Method)” value ([2]; patient #19) was “resistant (Ci values of 0-0.5 indicated resistance)” and the “Ci (New Method)” value ([2]; patient #20) was 0.36. The “prediction (New Method)” value ([2]; patient #20) was “resistant (Ci values of 0-0.5 indicated resistance)”, the “Ci (New Method)” value ([2]; patient #21) was 0.41 and the “prediction (New Method)” value ([2]; patient #21) was “resistant (Ci values of 0-0.5 indicated resistance)”. The “Ci (New Method)” value ([2]; patient #22) was 0.24 and the “prediction (New Method)” value ([2]; patient #22) was “resistant (Ci values of 0-0.5 indicated resistance)”.
